Source: patent US20160102074A1, “SUBSTITUTED AMIDE COMPOUNDS” (PFIZER INC., priority 2014, published 2016)

Tested on: PCSK9
Test: PCSK9 lowering in sandwich culture human hepatocytes (SCHH)
Type: cell-based
Conditions: sandwich culture primary cryopreserved human hepatocytes, secreted PCSK9 by AlphaLISA
Description: PCSK9 Lowering and Compound Concentration Determination in Sandwich Culture Human Hepatocytes (SCHH)
Test compound in-vitro pharmacokinetic and pharmacodynamic relationships were measured in sandwich culture primary cryopreserved human hepatocytes. Within these studies SCHH cells (BD Biosciences IVT) were thawed at 37° C. then placed on ice, after which the cells were added to pre-warmed (37° C.) In VitroGRO-HT media and centrifuged at 50×g for 3 min. The cell pellet was re-suspended to 0.8×10^6 cells/mL in InVitroGRO-CP plating medium and cell viability determined by trypan blue exclusion. On day 1, hepatocyte suspensions were plated in BioCoat 96-well plates at a density of 80000 cells/well in a volume of 0.1 mL/well. After 18 to 24 hours of incubation at 37° C. in 5% CO2, cells were overlaid with ice-cold 0.25 mg/mL BD Matrigel Matrix Phenol Red-Free in incubation medium at 0.1 mL/well. Cultures were maintained at 37° C. in 5% CO2 in InVitroGRO-HI (FBS-free media), which was replaced every 24 hours and time course treatments were initiated on day 5. […] Percent PCSK9 lowering versus vehicle treated cells was then determined for each time point and the maximum response (and the corresponding concentration and time when observed) is reported under the Sandwich Culture Hepatocyte (SCHH) PCSK9 lowering summarized in Table 3. […]

## Cn1ncc(-c2ccc(C(=O)N(c3ncccc3Cl)[C@@H]3CCCNC3)cc2F)c1-c1nn[nH]n1 [Example 3, N-(3-chloropyridin-2-yl)-3-fluoro-4-[1-methyl-5-(2H-tetrazol-5-yl)-1H-pyrazol-4-yl]-N-[(3R)-piperidin-3-yl]benzamide]
  IC50: 63.4 µM
